{"source": "patent US20040043920A1", "about": "“Compound for chelating a metal, radiopharmaceutical, manufacturing process therefor, and diagnostic kit” (priority 2000, published 2004)", "key": {"[1]": {"assay": "HPLC analysis of rats' urine for unchanged complex", "format": "in vivo, rat", "conditions": "rats' urine collected 1 hour 30 minutes after injection", "protocol": "(§1) The molecule was radiolabelled as described in Example (29). The radiolabelled compound is then isolated by HPLC, evaporated and taken up in 0.9% saline medium. The bioavailability in rats gives the following results (see Table 1):\nThe rats' urine was collected 1 hour 30 minutes after injection and analysed by HPLC. The result of this analysis is 87% of unchanged complex."}, "[2]": {"assay": "Bioavailability (biodistribution) of radiolabelled Lys-Lys bis-dithiocarbamate in rats", "format": "in vivo", "conditions": "rat", "protocol": "as §1\ntime 30 minutes and 60 minutes: 3 animals per point,\ntime 3 hours: 2 animals per point,\ntime 24 hours: 1 animal per point.\nThe results are expressed as a percentage of dose injected per organ."}, "[3]": {"assay": "Brain distribution in the rat: crossing of the blood-brain barrier and striatum/cerebellum ratio", "format": "in vivo", "protocol": "The model chosen is the rat. Depending on the compounds, we performed one or two sacrifice times (30 minutes or 1 hour).\nAt the times chosen, the brains were removed and the areas of interest were isolated and counted.\nthe crossing of the blood-brain barrier by the compound under consideration,\na striatum/cerebellum ratio."}}, "data": [{"molecule": "NC(CCCCNC(=S)S)C(=O)NC(CCCCNC(=S)S)C(=O)O", "note": "(centres unmarked) [Lys-Lys Bis-Dithiocarbamate]", "values": [{"measurement": "unchanged complex in urine", "setting": "[1]", "result": 87, "unit": "%"}, {"measurement": "percentage of dose injected per organ, adrenals", "setting": "[2]; 30 min", "result": "0.02 percentage of dose injected per organ"}, {"measurement": "percentage of dose injected per organ, adrenals", "setting": "[2]; 1 h", "result": "0.01 percentage of dose injected per organ"}, {"measurement": "percentage of dose injected per organ, adrenals", "setting": "[2]; 3 h", "result": "0.01 percentage of dose injected per organ"}, {"measurement": "percentage of dose injected per organ, adrenals", "setting": "[2]; 24 h", "result": "0.00 percentage of dose injected per organ"}, {"measurement": "percentage of dose injected per organ, bladder", "setting": "[2]; 30 min", "result": "0.47 percentage of dose injected per organ"}, {"measurement": "percentage of dose injected per organ, bladder", "setting": "[2]; 1 h", "result": "0.32 percentage of dose injected per organ"}, {"measurement": "percentage of dose injected per organ, bladder", "setting": "[2]; 3 h", "result": "0.05 percentage of dose injected per organ"}, {"measurement": "percentage of dose injected per organ, bladder", "setting": "[2]; 24 h", "result": "0.01 percentage of dose injected per organ"}, {"measurement": "percentage of dose injected per organ, blood", "setting": "[2]; 30 min", "result": "0.67 percentage of dose injected per organ"}, {"measurement": "percentage of dose injected per organ, blood", "setting": "[2]; 1 h", "result": "0.34 percentage of dose injected per organ"}, {"measurement": "percentage of dose injected per organ, blood", "setting": "[2]; 3 h", "result": "0.20 percentage of dose injected per organ"}, {"measurement": "percentage of dose injected per organ, blood", "setting": "[2]; 24 h", "result": "0.11 percentage of dose injected per organ"}, {"measurement": "percentage of dose injected per organ, brain", "setting": "[2]; 30 min", "result": "0.03 percentage of dose injected per organ"}, {"measurement": "percentage of dose injected per organ, brain", "setting": "[2]; 1 h", "result": "0.01 percentage of dose injected per organ"}, {"measurement": "percentage of dose injected per organ, brain", "setting": "[2]; 3 h", "result": "0.01 percentage of dose injected per organ"}, {"measurement": "percentage of dose injected per organ, brain", "setting": "[2]; 24 h", "result": "0.01 percentage of dose injected per organ"}, {"measurement": "percentage of dose injected per organ, caecum", "setting": "[2]; 30 min", "result": "0.31 percentage of dose injected per organ"}, {"measurement": "percentage of dose injected per organ, caecum", "setting": "[2]; 1 h", "result": "0.18 percentage of dose injected per organ"}, {"measurement": "percentage of dose injected per organ, caecum", "setting": "[2]; 3 h", "result": "0.11 percentage of dose injected per organ"}, {"measurement": "percentage of dose injected per organ, caecum", "setting": "[2]; 24 h", "result": "0.66 percentage of dose injected per organ"}, {"measurement": "percentage of dose injected per organ, colon", "setting": "[2]; 30 min", "result": "0.46 percentage of dose injected per organ"}, {"measurement": "percentage of dose injected per organ, colon", "setting": "[2]; 1 h", "result": "0.23 percentage of dose injected per organ"}, {"measurement": "percentage of dose injected per organ, colon", "setting": "[2]; 3 h", "result": "0.19 percentage of dose injected per organ"}, {"measurement": "percentage of dose injected per organ, colon", "setting": "[2]; 24 h", "result": "0.87 percentage of dose injected per organ"}, {"measurement": "percentage of dose injected per organ, heart", "setting": "[2]; 30 min", "result": "0.21 percentage of dose injected per organ"}, {"measurement": "percentage of dose injected per organ, heart", "setting": "[2]; 1 h", "result": "0.10 percentage of dose injected per organ"}, {"measurement": "percentage of dose injected per organ, heart", "setting": "[2]; 3 h", "result": "0.06 percentage of dose injected per organ"}, {"measurement": "percentage of dose injected per organ, heart", "setting": "[2]; 24 h", "result": "0.03 percentage of dose injected per organ"}, {"measurement": "percentage of dose injected per organ, intestine", "setting": "[2]; 30 min", "result": "20.55 percentage of dose injected per organ"}, {"measurement": "percentage of dose injected per organ, intestine", "setting": "[2]; 1 h", "result": "32.92 percentage of dose injected per organ"}, {"measurement": "percentage of dose injected per organ, intestine", "setting": "[2]; 3 h", "result": "51.4 percentage of dose injected per organ"}, {"measurement": "percentage of dose injected per organ, intestine", "setting": "[2]; 24 h", "result": "0.49 percentage of dose injected per organ"}, {"measurement": "percentage of dose injected per organ, kidneys", "setting": "[2]; 30 min", "result": "4.55 percentage of dose injected per organ"}, {"measurement": "percentage of dose injected per organ, kidneys", "setting": "[2]; 1 h", "result": "4.18 percentage of dose injected per organ"}, {"measurement": "percentage of dose injected per organ, kidneys", "setting": "[2]; 3 h", "result": "3.87 percentage of dose injected per organ"}, {"measurement": "percentage of dose injected per organ, kidneys", "setting": "[2]; 24 h", "result": "2.65 percentage of dose injected per organ"}, {"measurement": "percentage of dose injected per organ, liver", "setting": "[2]; 30 min", "result": "14.38 percentage of dose injected per organ"}, {"measurement": "percentage of dose injected per organ, liver", "setting": "[2]; 1 h", "result": "9.08 percentage of dose injected per organ"}, {"measurement": "percentage of dose injected per organ, liver", "setting": "[2]; 3 h", "result": "3.84 percentage of dose injected per organ"}, {"measurement": "percentage of dose injected per organ, liver", "setting": "[2]; 24 h", "result": "1.33 percentage of dose injected per organ"}, {"measurement": "percentage of dose injected per organ, lungs", "setting": "[2]; 30 min", "result": "0.43 percentage of dose injected per organ"}, {"measurement": "percentage of dose injected per organ, lungs", "setting": "[2]; 1 h", "result": "0.28 percentage of dose injected per organ"}, {"measurement": "percentage of dose injected per organ, lungs", "setting": "[2]; 3 h", "result": "0.15 percentage of dose injected per organ"}, {"measurement": "percentage of dose injected per organ, lungs", "setting": "[2]; 24 h", "result": "0.08 percentage of dose injected per organ"}, {"measurement": "percentage of dose injected per organ, spleen", "setting": "[2]; 30 min", "result": "0.13 percentage of dose injected per organ"}, {"measurement": "percentage of dose injected per organ, spleen", "setting": "[2]; 1 h", "result": "0.09 percentage of dose injected per organ"}, {"measurement": "percentage of dose injected per organ, spleen", "setting": "[2]; 3 h", "result": "0.05 percentage of dose injected per organ"}, {"measurement": "percentage of dose injected per organ, spleen", "setting": "[2]; 24 h", "result": "0.04 percentage of dose injected per organ"}, {"measurement": "percentage of dose injected per organ, stomach", "setting": "[2]; 30 min", "result": "8.24 percentage of dose injected per organ"}, {"measurement": "percentage of dose injected per organ, stomach", "setting": "[2]; 1 h", "result": "3.36 percentage of dose injected per organ"}, {"measurement": "percentage of dose injected per organ, stomach", "setting": "[2]; 3 h", "result": "2.64 percentage of dose injected per organ"}, {"measurement": "percentage of dose injected per organ, stomach", "setting": "[2]; 24 h", "result": "0.08 percentage of dose injected per organ"}, {"measurement": "percentage of dose injected per organ, urine", "setting": "[2]; 30 min", "result": "14.39 percentage of dose injected per organ"}, {"measurement": "percentage of dose injected per organ, urine", "setting": "[2]; 1 h", "result": "14.70 percentage of dose injected per organ"}, {"measurement": "percentage of dose injected per organ, urine", "setting": "[2]; 3 h", "result": "0.44 percentage of dose injected per organ"}, {"measurement": "percentage of dose injected per organ, urine", "setting": "[2]; 24 h", "result": "0.05 percentage of dose injected per organ"}]}, {"molecule": "Cc1ccc(C2CC3CCC(C2COC(=O)C2CCCCNC(=S)[S][Tc](#[N])[S]C(=S)NCCCCC(=O)N2)N3C)cc1", "note": "(centres unmarked) [Compound 52]", "values": [{"measurement": "Biodistribution: cerebellum", "setting": "[3]; 30′", "result": "30′: cerebellum: 0.114%"}, {"measurement": "Biodistribution: crossing of blood-brain barrier", "setting": "[3]; 30′", "result": "barrier: 0.358%"}, {"measurement": "Biodistribution: striatum", "setting": "[3]; 30′", "result": "striatum: 0.133%"}, {"measurement": "S/C (striatum/cerebellum ratio)", "setting": "[3]; 30′", "result": 1.17}, {"measurement": "Biodistribution: cerebellum", "setting": "[3]; 1 h", "result": "1 h: cerebellum: 0.065%"}, {"measurement": "Biodistribution: crossing of blood-brain barrier", "setting": "[3]; 1 h", "result": "barrier: 0.182%"}, {"measurement": "Biodistribution: striatum", "setting": "[3]; 1 h", "result": "striatum: 0.064%"}, {"measurement": "S/C (striatum/cerebellum ratio)", "setting": "[3]; 1 h", "result": 0.98}]}]}
